Assay results from paper PMC3157398 (PLoS ONE, 2011).

Assays:
ATP synthase subunit c = molecular target: T1, ATP synthase subunit c (Mycobacterium tuberculosis, UniProt P9WPS1); format: binding
T1 construct: made in house

ATP synthase holoenzyme = ATP synthase holoenzyme (Bacillus sp., UniProt P00845+P09218); format: binding, Bacillus PS3
[1] = molecular target: mycobacterial ATP synthase (Mycolicibacterium smegmatis, UniProt A0R205+A0R206)
[2] = system: ATP synthase with resistance mutation D32V in subunit c; format: biochemical, Mycobacterium smegmatis

T1 sequence (P9WPS1 whole entry): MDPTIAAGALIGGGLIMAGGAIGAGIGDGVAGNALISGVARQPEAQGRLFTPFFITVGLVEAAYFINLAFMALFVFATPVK

COc1nc2ccc(N)cc2cc1[C@@H](c1ccccc1)[C@@](O)(CCN(C)C)c1cccc2ccccc12 [TMC207 amino-analog]
dissociation constant of mono-exponential fit (ATP synthase subunit c): 0.002295
dissociation constant of mono-exponential fit (ATP synthase holoenzyme): 0.000103

CC(C)(C)c1cc(C=C(C#N)C#N)cc(C(C)(C)C)c1O [SF6847]
residual ATP synthesis activity [1]: < 10%

COc1nc2ccc(Br)cc2cc1[C@@H](c1ccccc1)[C@@](O)(CCN(C)C)c1cccc2ccccc12 [TMC207]
inhibition of ATP synthesis [2]: no inhibition
